From ChEMBL document CHEMBL1129962, “Nonsteroidal anti-inflammatory drugs as scaffolds for the design of 5-lipoxygenase inhibitors” (J Med Chem, 1997)

Tests used:
[1] = molecular target: T1, Polyunsaturated fatty acid 5-lipoxygenase (Homo sapiens, UniProt P09917); assay: Inhibitory activity against 5-lipoxygenase in Human whole blood (HWBL) stimulated with calcium ionophore (A23187) and LTB4 measured by enzyme immunoassay; type: functional, tissue-based
T1 sequence (P09917 whole entry): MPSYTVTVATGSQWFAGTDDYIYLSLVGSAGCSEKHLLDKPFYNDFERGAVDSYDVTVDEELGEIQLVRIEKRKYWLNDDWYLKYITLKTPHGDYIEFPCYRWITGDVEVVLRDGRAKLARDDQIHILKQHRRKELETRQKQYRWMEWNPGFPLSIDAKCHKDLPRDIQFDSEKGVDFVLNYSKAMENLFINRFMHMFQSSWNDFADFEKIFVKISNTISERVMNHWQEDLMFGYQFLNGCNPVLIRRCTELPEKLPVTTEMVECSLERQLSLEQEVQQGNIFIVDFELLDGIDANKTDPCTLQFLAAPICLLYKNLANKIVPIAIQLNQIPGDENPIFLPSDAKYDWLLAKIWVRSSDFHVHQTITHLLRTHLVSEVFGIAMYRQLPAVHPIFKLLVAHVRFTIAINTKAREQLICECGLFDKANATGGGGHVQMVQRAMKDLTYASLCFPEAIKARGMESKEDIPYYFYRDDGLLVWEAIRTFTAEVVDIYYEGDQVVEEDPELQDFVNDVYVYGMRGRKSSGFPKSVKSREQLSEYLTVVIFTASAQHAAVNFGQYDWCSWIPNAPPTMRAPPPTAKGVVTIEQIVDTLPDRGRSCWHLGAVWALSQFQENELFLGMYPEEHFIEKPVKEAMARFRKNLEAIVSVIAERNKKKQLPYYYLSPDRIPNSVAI

[2] = molecular target: T2, Prostaglandin G/H synthase 2 (Homo sapiens) (UniProt P35354); assay: Inhibition activity against recombinant human Prostaglandin G/H synthase 2; design: concentration or dose not given beside the values; conditions: concentration not given here
T2 sequence (whole entry): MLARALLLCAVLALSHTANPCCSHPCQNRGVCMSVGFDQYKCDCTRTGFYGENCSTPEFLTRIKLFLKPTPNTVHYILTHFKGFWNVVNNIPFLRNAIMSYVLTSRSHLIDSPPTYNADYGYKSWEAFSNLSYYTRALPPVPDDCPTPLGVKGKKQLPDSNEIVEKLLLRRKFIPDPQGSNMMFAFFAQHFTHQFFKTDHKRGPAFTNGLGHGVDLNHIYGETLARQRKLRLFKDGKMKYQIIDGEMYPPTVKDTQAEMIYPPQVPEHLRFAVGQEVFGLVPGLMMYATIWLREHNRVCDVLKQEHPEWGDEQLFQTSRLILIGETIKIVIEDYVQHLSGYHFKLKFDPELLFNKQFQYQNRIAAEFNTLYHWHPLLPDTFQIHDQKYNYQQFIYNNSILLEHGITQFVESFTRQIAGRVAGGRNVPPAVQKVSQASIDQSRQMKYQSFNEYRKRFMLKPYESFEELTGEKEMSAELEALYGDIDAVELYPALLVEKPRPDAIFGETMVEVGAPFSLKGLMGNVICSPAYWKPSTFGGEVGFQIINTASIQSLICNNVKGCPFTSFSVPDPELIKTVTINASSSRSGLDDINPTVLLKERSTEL

[3] = molecular target: Prostaglandin G/H synthase 1 (Homo sapiens) (UniProt P23219); assay: Inhibition activity against recombinant human Prostaglandin G/H synthase 1; design: concentration or dose not given beside the values; conditions: concentration not given here
Chain of Prostaglandin G/H synthase 1 (Homo sapiens) (P23219 whole entry): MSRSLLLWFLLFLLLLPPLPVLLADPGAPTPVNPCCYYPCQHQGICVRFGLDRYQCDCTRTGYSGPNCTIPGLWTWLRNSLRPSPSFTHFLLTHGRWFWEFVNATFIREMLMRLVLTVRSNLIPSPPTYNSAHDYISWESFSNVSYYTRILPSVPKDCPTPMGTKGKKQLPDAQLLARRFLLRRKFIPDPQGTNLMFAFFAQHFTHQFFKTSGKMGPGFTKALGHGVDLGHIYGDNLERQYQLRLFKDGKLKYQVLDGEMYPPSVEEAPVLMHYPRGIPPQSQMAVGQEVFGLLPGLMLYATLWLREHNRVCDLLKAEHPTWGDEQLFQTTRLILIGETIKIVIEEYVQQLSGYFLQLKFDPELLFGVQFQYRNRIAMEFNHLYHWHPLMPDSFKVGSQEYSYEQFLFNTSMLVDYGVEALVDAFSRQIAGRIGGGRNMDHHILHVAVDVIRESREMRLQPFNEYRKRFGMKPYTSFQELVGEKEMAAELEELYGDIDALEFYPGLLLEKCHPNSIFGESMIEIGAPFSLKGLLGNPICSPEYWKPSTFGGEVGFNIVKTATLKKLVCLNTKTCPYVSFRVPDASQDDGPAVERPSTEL

[4] = molecular target: T3, Polyunsaturated fatty acid 5-lipoxygenase (Rattus norvegicus, UniProt P12527); assay: Inhibitory activity against 5-lipoxygenase catalysis (5-LO) in sonicated rat basophilic leukemia cell lysate; type: functional
T3 sequence (P12527 whole entry): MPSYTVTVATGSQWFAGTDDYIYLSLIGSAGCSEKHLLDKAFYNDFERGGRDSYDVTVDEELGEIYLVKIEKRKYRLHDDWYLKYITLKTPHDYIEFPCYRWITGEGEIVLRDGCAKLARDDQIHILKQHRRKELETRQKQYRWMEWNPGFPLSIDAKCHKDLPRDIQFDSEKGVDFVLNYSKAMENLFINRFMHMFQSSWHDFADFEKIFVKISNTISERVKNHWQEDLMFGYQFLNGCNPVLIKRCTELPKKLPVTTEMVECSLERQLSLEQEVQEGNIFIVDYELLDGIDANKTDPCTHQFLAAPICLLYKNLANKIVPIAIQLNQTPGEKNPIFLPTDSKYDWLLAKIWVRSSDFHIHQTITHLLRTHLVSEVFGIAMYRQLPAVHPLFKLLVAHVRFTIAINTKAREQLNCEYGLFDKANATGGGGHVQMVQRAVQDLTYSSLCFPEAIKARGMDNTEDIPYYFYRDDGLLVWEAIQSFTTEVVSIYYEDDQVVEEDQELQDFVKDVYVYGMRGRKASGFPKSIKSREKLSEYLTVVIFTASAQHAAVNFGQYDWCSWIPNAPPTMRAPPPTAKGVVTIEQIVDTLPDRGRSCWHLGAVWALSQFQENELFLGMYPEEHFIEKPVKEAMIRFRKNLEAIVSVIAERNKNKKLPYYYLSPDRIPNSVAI

IC50 [1] [µM] | inhibition [2] [%] | inhibition [3] [%] | IC50 [4] [µM] | Compound
 | 0 | 0 |  | CC(c1cc2ccccc2s1)N(O)C(N)=O (stereo not drawn)
1 | 88 | 64 | 0.2 | COc1ccc2c(c1)c(CNC(=O)N(C)O)c(C)n2C(=O)c1ccc(Cl)cc1

Further lines, the compound ahead of its results:

Compound | IC50 [1] [µM] | inhibition [2] [%] | inhibition [3] [%] | IC50 [4] [µM]
COc1ccc2cc([C@H](C)NC(=O)NO)ccc2c1 | 7.1 | 2 | 0 | 
COc1ccc2c(c1)c(CCN(O)C(N)=O)c(C)n2C(=O)c1ccc(Cl)cc1 | 6.1 | 48 | 9 | 
CC(C)Cc1ccc(C(C)N(O)C(N)=O)cc1 (stereo not drawn) | 2.5 | 0 | 37 | 0.6
COc1ccc2cc([C@H](C)N(O)C(N)=O)ccc2c1 | 1.6 | 0 | 0 | 0.4
CC(C)Cc1ccc(C(C)NC(=O)NO)cc1 (stereo not drawn) | 23 | 0 | 51 | 
